Test results as given in the NIST ThermoML archive (doi:10.1021/je0602519).

Test: xn = mol fraction of the nth substance listed
Settings: 101 kPa, Liquid; for speed of sound: Frequency=2 MHz, Linear variable-path acoustic interferometer; for mass density: Pycnometric method

CCCCCCCCCCO [decan-1-ol] + Cc1ccccc1
Settings | mass density, 303.15 K [kg/m3] | mass density, 313.15 K [kg/m3] | speed of sound, 303.15 K [m/s] | speed of sound, 313.15 K [m/s] | viscosity, 303.15 K [mPa·s] | viscosity, 313.15 K [mPa·s]
x2 = 0 | 822.87 | 815.97 | 1366 | 1334 | 9.716 | 6.82
x2 = 0.0507 | 823.76 | 816.74 | 1361 | 1327 | 8.474 | 6.06
x2 = 0.1015 | 824.73 | 817.58 | 1355 | 1320 | 7.424 | 5.343
x2 = 0.1473 | 825.62 | 818.34 | 1349 | 1314 | 6.635 | 4.771
x2 = 0.2091 | 826.88 | 819.45 | 1340 | 1305 | 5.658 | 4.059
x2 = 0.2577 | 827.9 | 820.38 | 1333 | 1297 | 4.962 | 3.552
x2 = 0.3006 | 828.84 | 821.2 | 1327 | 1292 | 4.458 | 3.112
x2 = 0.3496 | 829.95 | 822.24 | 1318 | 1283 | 3.848 | 2.71
x2 = 0.4028 | 831.22 | 823.38 | 1311 | 1275 | 3.32 | 2.263
x2 = 0.4516 | 832.48 | 824.49 | 1303 | 1268 | 2.843 | 1.903
x2 = 0.4989 | 833.77 | 825.69 | 1295 | 1261 | 2.499 | 1.678
x2 = 0.5497 | 835.29 | 827.06 | 1290 | 1255 | 2.152 | 1.47
x2 = 0.6009 | 836.92 | 828.57 | 1285 | 1249 | 1.883 | 1.305
x2 = 0.6498 | 838.61 | 830.11 | 1280 | 1245 | 1.594 | 1.162
x2 = 0.7065 | 840.8 | 832.12 | 1275 | 1240 | 1.414 | 0.994
x2 = 0.7524 | 842.7 | 833.86 | 1274 | 1239 | 1.15 | 0.905
x2 = 0.8069 | 845.15 | 836.21 | 1273 | 1239 | 1.021 | 0.79
x2 = 0.8472 | 847.18 | 838.04 | 1274 | 1240 | 0.887 | 0.732
x2 = 0.9063 | 850.54 | 841.18 | 1278 | 1243 | 0.75 | 0.64
x2 = 0.9489 | 853.12 | 843.58 | 1282 | 1248 | 0.599 | 0.565

CCCCCCCO [heptan-1-ol] + Cc1ccccc1
Settings | mass density, 303.15 K [kg/m3] | mass density, 313.15 K [kg/m3] | speed of sound, 303.15 K [m/s] | speed of sound, 313.15 K [m/s] | viscosity, 303.15 K [mPa·s] | viscosity, 313.15 K [mPa·s]
x2 = 0 | 814.89 | 807.68 | 1313 | 1279 | 5.048 | 3.712
x2 = 0.0525 | 816.52 | 809.17 | 1310 | 1274 | 4.404 | 3.362
x2 = 0.1014 | 818.06 | 810.59 | 1307 | 1271 | 3.859 | 3.074
x2 = 0.1518 | 819.67 | 812.07 | 1304 | 1267 | 3.4 | 2.77
x2 = 0.1859 | 820.78 | 813.13 | 1301 | 1263 | 3.154 | 2.55
x2 = 0.2489 | 822.84 | 815.02 | 1296 | 1258 | 2.645 | 2.226
x2 = 0.3011 | 824.61 | 816.69 | 1291 | 1251 | 2.314 | 1.986
x2 = 0.3504 | 826.34 | 818.24 | 1286 | 1247 | 2.042 | 1.77
x2 = 0.4006 | 828.07 | 819.87 | 1282 | 1242 | 1.796 | 1.583
x2 = 0.4494 | 829.88 | 821.57 | 1278 | 1237 | 1.594 | 1.436
x2 = 0.5003 | 831.83 | 823.35 | 1274 | 1233 | 1.399 | 1.271
x2 = 0.5486 | 833.72 | 825.14 | 1271 | 1230 | 1.25 | 1.144
x2 = 0.5903 | 835.44 | 826.72 | 1269 | 1227 | 1.113 | 1.069
x2 = 0.6493 | 837.95 | 829.09 | 1266 | 1226 | 0.982 | 0.965
x2 = 0.7011 | 840.28 | 831.32 | 1266 | 1225 | 0.888 | 0.84
x2 = 0.752 | 842.69 | 833.57 | 1267 | 1226 | 0.776 | 0.772
x2 = 0.8041 | 845.27 | 836.02 | 1268 | 1228 | 0.673 | 0.682
x2 = 0.8495 | 847.69 | 838.32 | 1272 | 1232 | 0.635 | 0.639
x2 = 0.9009 | 850.55 | 841.07 | 1276 | 1239 | 0.588 | 0.573
x2 = 0.9487 | 853.39 | 843.85 | 1282 | 1245 | 0.546 | 0.528

CCCCCCCCO [octan-1-ol] + Cc1ccccc1
Settings | mass density, 303.15 K [kg/m3] | mass density, 313.15 K [kg/m3] | speed of sound, 303.15 K [m/s] | speed of sound, 313.15 K [m/s] | viscosity, 303.15 K [mPa·s] | viscosity, 313.15 K [mPa·s]
x2 = 0 | 818.38 | 811.05 | 1334 | 1304 | 6.433 | 4.603
x2 = 0.0495 | 819.62 | 812.14 | 1329 | 1300 | 5.63 | 4.13
x2 = 0.1104 | 821.19 | 813.56 | 1325 | 1293 | 4.775 | 3.645
x2 = 0.1513 | 822.25 | 814.55 | 1321 | 1287 | 4.281 | 3.261
x2 = 0.1999 | 823.55 | 815.73 | 1316 | 1282 | 3.788 | 2.832
x2 = 0.2517 | 824.98 | 817.04 | 1310 | 1274 | 3.28 | 2.545
x2 = 0.2997 | 826.34 | 818.29 | 1304 | 1268 | 2.952 | 2.218
x2 = 0.356 | 828.02 | 819.85 | 1297 | 1262 | 2.504 | 1.944
x2 = 0.3998 | 829.32 | 821.03 | 1291 | 1255 | 2.229 | 1.715
x2 = 0.4506 | 830.99 | 822.56 | 1286 | 1250 | 1.974 | 1.518
x2 = 0.5001 | 832.63 | 824.08 | 1281 | 1242 | 1.758 | 1.37
x2 = 0.5513 | 834.46 | 825.77 | 1276 | 1238 | 1.541 | 1.175
x2 = 0.6014 | 836.31 | 827.51 | 1272 | 1234 | 1.35 | 1.084
x2 = 0.6495 | 838.22 | 829.3 | 1270 | 1231 | 1.214 | 0.935
x2 = 0.6997 | 840.36 | 831.29 | 1268 | 1228 | 1.065 | 0.866
x2 = 0.7569 | 842.9 | 833.69 | 1267 | 1228 | 0.931 | 0.754
x2 = 0.8012 | 845.02 | 835.74 | 1268 | 1229 | 0.819 | 0.703
x2 = 0.8527 | 847.7 | 838.28 | 1269 | 1232 | 0.733 | 0.636
x2 = 0.9 | 850.32 | 840.85 | 1273 | 1236 | 0.646 | 0.558
x2 = 0.954 | 853.6 | 844 | 1280 | 1245 | 0.576 | 0.526
